# Earlier results, collected in patent publication US7456204B2, “Cyclohexylglycine derivatives as dipeptidyl peptidase inhibitors for the treatment or prevention of diabetes” (Merck & Co., Inc., priority 2003, dated 2008).
# Key:
# hematopoiesis = conditions: mouse, cyclophosphamide-induced neutropenia
# [1] = test system: cardiac allograft survival; conditions: rats; from day 7 to day 14
# DP-IV = molecular target: T1, DP-IV (Homo sapiens, UniProt P27487)
# T1 construct: GRF is rapidly degraded in plasma to GRF[3-44]
# T1 sequence (P27487 39-766 limits assumed): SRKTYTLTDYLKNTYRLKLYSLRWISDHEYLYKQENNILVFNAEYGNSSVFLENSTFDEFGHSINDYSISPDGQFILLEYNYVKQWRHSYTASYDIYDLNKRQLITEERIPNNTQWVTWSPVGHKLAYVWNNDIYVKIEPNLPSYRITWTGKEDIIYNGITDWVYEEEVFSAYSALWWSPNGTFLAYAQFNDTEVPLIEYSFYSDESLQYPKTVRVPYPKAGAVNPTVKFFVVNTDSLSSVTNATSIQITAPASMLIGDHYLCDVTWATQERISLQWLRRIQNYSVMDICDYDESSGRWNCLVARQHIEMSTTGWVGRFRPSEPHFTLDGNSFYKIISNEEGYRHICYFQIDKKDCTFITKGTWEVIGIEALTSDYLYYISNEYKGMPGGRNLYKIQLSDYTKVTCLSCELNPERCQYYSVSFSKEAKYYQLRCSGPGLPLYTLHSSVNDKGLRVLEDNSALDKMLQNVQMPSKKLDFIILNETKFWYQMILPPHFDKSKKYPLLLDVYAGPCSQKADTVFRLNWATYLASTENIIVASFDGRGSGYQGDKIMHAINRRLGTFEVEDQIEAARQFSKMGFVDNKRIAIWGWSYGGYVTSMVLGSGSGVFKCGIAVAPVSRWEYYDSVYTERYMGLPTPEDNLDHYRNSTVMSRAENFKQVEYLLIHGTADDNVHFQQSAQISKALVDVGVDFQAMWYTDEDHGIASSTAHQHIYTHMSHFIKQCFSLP
structure (smiles),measurement,setting,value
CC(C)[C@H](N)C(=O)N1CCC[C@H]1B(O)O [Val-Boro-Pro],hematopoiesis,hematopoiesis,stimulated hematopoiesis
"CC(C)N1CCC(c2ccccc2)(c2ccccc2)CC1 [Prodipine, Pro-Pro-diphenyl-phosphonate]",cardiac allograft survival,[1],double cardiac allograft survival
CC[C@H](C)[C@H](N)C(=O)N1CCC[C@H]1C(=O)N[C@H](C(=O)O)[C@@H](C)CC [diprotin A],degradation of GRF in plasma to GRF[3-44],DP-IV,prevented
